Source: patent publication US10238676B2, “Application of ginsenoside RG3 in preparing medicine for preventing and/or treating dementia, and medicine for treating dementia” (priority 2013, dated 2019)

What was measured:
[1] = Content of ginsenoside Rg3 in rat cerebrospinal fluid (BBB test, LC/MS/MS); type: in vivo, SD rats; conditions: rats, orally 10 mg/kg
Experimental: 1) Oral administration: an oral preparation of ginsenoside Rg3 is given to SD rats by lavage, the medicines of all high-dosage, medium-dosage and low-dosage groups are: 20, 10 and 5 mg/kg (the dosage above is pure dosage of Rg3)/bid, respectively, and each dosage group has 18 rats;
Rat cerebrospinal fluid is sucked after orally, topically and injection administering different preparations of ginsenoside Rg3 for 4 hours. […] Each rat is anesthetized with 10% chloral hydrate by intraperitoneal injection, the head of the rat is fixed by brain straight body positioning ear rods and front tooth rods, the occipital region is sheared and sterilized, and a longitudinal incision (about 2 cm) is cut along the posterior midline, and the muscles at the dorsal part of napex are bluntly separated with a pair of scissors. […]
The medicine concentrations in the rat cerebrospinal fluid are determined by LC/MS/MS methods. […]

[2] = system: patients with mild or moderate Alzheimer's disease; test: Placebo-controlled clinical research, MMSE/CDR/ADL, mild or moderate Alzheimer's disease (Test Example 4); type: in vivo, human
Text: 89 patients with mild or moderate Alzheimer's disease are divided into two groups randomly, one of which take ginsenoside Rg3, and the other placebos. There are 46 patients in the group taking Rg3, with 21 male and 25 female, aged from 58 to 87 (72.6±6.8), scoring from 10 to 24 (17.8±2.3) points in the mini-mental state examination (MMSE); there are 43 patients taking placebos, with 19 male and 24 female aged from 57 to 88 (71.8±8.2), scoring from 10 to 24 (18.2±2.7) points in MMSE. There are no obvious differences between the ginsenoside Rg3 group and the placebo group with respect to gender, age and MMSE scores. The patents in the group taking ginsenoside Rg3 use the ginsenoside Rg3 naristillae once a day for 12 continuous weeks, with 10 mg/ml for each time.
For the patients taking placebos, except that what is used for intranasal administration are placebos, the rest is conducted according to the same administration method as that adopted by those taking ginsenoside Rg3.
The ginsenoside Rg3 naristillae has a concentration of 10 mg/ml, and colors, characters, tastes and dosages of the placebos are the same as those of the ginsenoside Rg3 naristillae. The ginsenoside Rg3 naristillae and the placebos are applied once a day for 12 continuous weeks. Examination is conducted once every four weeks before and after medication, and the examination method is as follows:
(1) MMSE Screening of AD: examining patients' cognitive functions (orientation, memory, computational power, language competence, ability in applying visual-spatial segment etc.; (2) Examining patents' dementia degrees using the clinical dementia rating (CDR); (3) Examining patents' activities of daily living using the activity of daily living scale (ADL).
SPSS statistical software is adopted for examination results. T-test is adopted before and after treatment, and it is also adopted for the ginsenoside Rg3 naristillae group and the placebo control group. For scoring results of MMSE, CDR and ADL of patients with AD before treatment, see table 5

β-amyloid protein (Aβ) = test: Cerebrospinal fluid β-amyloid protein content (ELISA) of patients with Alzheimer's disease; type: in vivo, human; conditions: AD inpatients
Experimental: 2 ml of cerebrospinal fluid is collected by lumbar puncture, and is stored at −80° C., the β-amyloid protein (Aβ) content is determined by using enzyme-linked immunosorbent assay (ELISA). A revised Hasegawa dementia scale (HDS-R) is used to score, and the scores before and after treatment are compared, increasing in scores means validness, and unchanging or decreasing in scores means invalidness. The enumeration data adopts χ^2 test, the comparison of measurement data adopts t-test, all data is processed by adopting SPSS12.0 statistical software.

[3] = system: intracerebral cholinergic nerve system of rat model with Alzheimer's disease; test: AChE positive nerve fiber density of cortex and hippocampal formation, rat model with Alzheimer's disease (D-galactose + IBO); type: in vivo, Wistar rats; conditions: AD model rats, 6 weeks; for N Frontal lobe AchE positive nerve fiber density: Rg3 lotion (embodiment 7) on both sides of nose; for N Entorhinal cortex AchE positive nerve fiber density / N Occipital lobe AchE positive nerve fiber density / Parietal lobe AchE positive nerve fiber density / N Stratum lacunosum-moleculare AchE positive nerve fiber density / N Stratum moleculare of dentate gyrus AchE positive nerve fiber density / N Stratum oriens AchE positive nerve fiber density / N Stratum radiatum AchE positive nerve fiber density: Rg3 lotion topical; for N Stratum lacunosum-moleculare AchE positive nerve fiber density / N Stratum moleculare of dentate gyrus AchE positive nerve fiber density / N Stratum oriens AchE positive nerve fiber density / N Stratum radiatum AchE positive nerve fiber density: hippocampal formation
Text: 60 Wistar rats each of which having the body weight of 300-500 g are randomly divided into 6 groups, with 10 in each group, and the groups are named a preliminary elder normal control group, a preliminary elder AD model group, a positive medicine Huperzine A group, and high-dose, medium-dose and low-dose of Ginsenoside Rg3 topical preparation groups according to different treatment methods, respectively. The rats are bred in separate cages, each holding 4-5 rats, with natural lighting and random drinking and feeding provided. Physiological saline is injected in the abdominal cavity and grain of each rat in the preliminary elder normal control group; Galactose intraperitoneal injection and IBO intracerebral injection are given to all rats in the preliminary elder AD model group, the positive medicine Huperzine A group, and the high-dose, medium-dose and low-dose Ginsenoside Rg3 topical preparation groups; while the rats in the Huperzine A group and the high-dose, medium-dose and low-dose of Ginsenoside Rg3 topical preparation groups are subjected to D-galactose injection for modeling, rat of each group is given Huperzine A 0.3 mg/kg/d and Ginsenoside Rg3 10, 5, 2.5 mg/kg/d respectively. Ginsenoside Rg3 is applied to both sides of the nose of each rat of Ginsenoside Rg3 topical preparation groups. All the rats are subjected to the medicines continuously for 6 weeks and then intracerebral bilateral Meynert nuclei injection is carried out. Reference is made to a rat cerebral stereotaxic atlas for Meynert nuclei localization, and localization coordinates are AP-0.8 mm, Late 2.6 mm and DV 8.2 mm During intracerebral injection, a rat is anesthetized with 3% pentobarbital sodium (30 mg/kg) and then immobilized to a cerebral stereotaxic apparatus, physiological saline dissolved IBO (injection 1 μl for each side containing 5 μg of IBO) or 1 μl normal saline is injected slowly into a Meynert nucleus, each side takes injection for 5 minutes, and needle retaining for 10 minutes, wherein all the rats are subjected to cerebral perfusion with 4% paraformaldehyde after modeling and are then immobilized for 24 hours, and the brain is put in a sucrose phosphate buffer until brain tissue blocks sink, the blocks are frozen in a incubator and serially sectioned to […] in thickness. The sections are subjected to acetycholinesterase (AChE) histochemical staining by methods recommended by Hedreen, et al. Observation is given to the frontal lobe, the parietal lobe, the occipital lobe and the entorhinal cortex (layer II) as well as parts in a hippocampal CA1 region of the hippocampal formation such as a stratum oriens, a stratum radiatum, a stratum lacunosum-moleculare and a stratum moleculare of dentate gyrus for observing their AChE positive nerve fiber densities, and the AChE positive nerve fiber densities are counted with a number of intersections of positive fibers with a standard grid by using a micrometer used for a microscope.
A significance level a is equal to 0.05.

[4] = cited from earlier work
[5] = 46 AD patients, Rg3 naristillae 10 mg/ml intranasal once a day

CC(C)=CCC[C@](C)(O)[C@H]1CC[C@]2(C)[C@@H]1[C@H](O)C[C@@H]1[C@@]3(C)CC[C@H](O[C@@H]4O[C@H](CO)[C@@H](O)[C@H](O)[C@H]4O[C@@H]4O[C@H](CO)[C@@H](O)[C@H](O)[C@H]4O)C(C)(C)[C@@H]3CC[C@]12C [Ginsenoside Rg3, 20(R)-ginsenoside Rg3]
Ginsenoside Rg3 in cerebrospinal fluid sample (FIG. 2C chromatogram) [1]: 10.8 ng/g | ADL score before treatment ([2]; 46 AD patients, baseline): 47.2 ± 7.9 points | CDR score before treatment ([2]; 46 AD patients, baseline): 1.9 ± 0.3 points | MMSE score before treatment ([2]; 46 AD patients, baseline): 17.8 ± 2.3 points | ADL score after treatment for 12 weeks [2, 5]: 40.5 ± 7.6 points | CDR score after treatment for 12 weeks [2, 5]: 1.2 ± 0.2 points | MMSE score after treatment for 12 weeks ([2]; 46 AD patients, Rg3 naristillae (embodiment 29) 10 mg/ml intranasal once a day): 24.1 ± 2.0 points | decrease of ADL score after treatment compared with before treatment ([2]; Test Example 4, Rg3 naristillae, 12 weeks): 7.1 points | Aβ content in cerebrospinal fluid, post treatment (β-amyloid protein (Aβ); n = 18, Rg3 oral liquid 10 mg/d or donepezil 5 mg/d orally, 12 weeks): 3.8 ± 1.5 | Aβ content in cerebrospinal fluid, before treatment (β-amyloid protein (Aβ); n = 18 per group, baseline): 5.9 ± 2.6 | N Frontal lobe AchE positive nerve fiber density ([3]; 2.5 mg/kg/d): 122.7 ± 18.6^Δ 10^2 · mm^−2 | N Frontal lobe AchE positive nerve fiber density ([3]; 5 mg/kg/d): 130.7 ± 20.8^Δ 10^2 · mm^−2 | N Frontal lobe AchE positive nerve fiber density ([3]; 10 mg/kg/d): 143.7 ± 22.1^Δ 10^2 · mm^−2 | N Entorhinal cortex AchE positive nerve fiber density ([3]; 2.5 mg/kg/d): 130.2 ± 15.6 10^2 · mm^−2 | N Occipital lobe AchE positive nerve fiber density ([3]; 2.5 mg/kg/d): 145.2 ± 9.2^ΔΔ** 10^2 · mm^−2 | Parietal lobe AchE positive nerve fiber density ([3]; 2.5 mg/kg/d): 162.9 ± 22.0^#** 10^2 · mm^−2 | N Entorhinal cortex AchE positive nerve fiber density ([3]; 5 mg/kg/d): 142.6 ± 11.9 10^2 · mm^−2 | N Occipital lobe AchE positive nerve fiber density ([3]; 5 mg/kg/d): 160.2 ± 10.2^ΔΔ** 10^2 · mm^−2 | Parietal lobe AchE positive nerve fiber density ([3]; 5 mg/kg/d): 170.9 ± 21.2^#** 10^2 · mm^−2 | N Entorhinal cortex AchE positive nerve fiber density ([3]; 10 mg/kg/d): 161.1 ± 18.3^ΔΔ**° 10^2 · mm^−2 | N Occipital lobe AchE positive nerve fiber density ([3]; 10 mg/kg/d): 167.2 ± 12.9^ΔΔ**° 10^2 · mm^−2 | Parietal lobe AchE positive nerve fiber density ([3]; 10 mg/kg/d): 183.9 ± 24.9^#**° 10^2 · mm^−2 | N Stratum lacunosum-moleculare AchE positive nerve fiber density ([3]; 2.5 mg/kg/d): 77.2 ± 9.1^ΔΔ** 10^2 · mm^−2 | N Stratum moleculare of dentate gyrus AchE positive nerve fiber density ([3]; 2.5 mg/kg/d): 119.8 ± 12.4 10^2 · mm^−2 | N Stratum oriens AchE positive nerve fiber density ([3]; 2.5 mg/kg/d): 140.1 ± 20.5^Δ 10^2 · mm^−2 | N Stratum radiatum AchE positive nerve fiber density ([3]; 2.5 mg/kg/d): 122.4 ± 14.4^#** 10^2 · mm^−2 | N Stratum lacunosum-moleculare AchE positive nerve fiber density ([3]; 5 mg/kg/d): 84.2 ± 10.9^ΔΔ** 10^2 · mm^−2 | N Stratum moleculare of dentate gyrus AchE positive nerve fiber density ([3]; 5 mg/kg/d): 131.5 ± 14.7 10^2 · mm^−2 | N Stratum oriens AchE positive nerve fiber density ([3]; 5 mg/kg/d): 153.0 ± 22.1^Δ 10^2 · mm^−2 | N Stratum radiatum AchE positive nerve fiber density ([3]; 5 mg/kg/d): 135.1 ± 23.9^#** 10^2 · mm^−2 | N Stratum lacunosum-moleculare AchE positive nerve fiber density ([3]; 10 mg/kg/d): 99.2 ± 17.3^Δ 10^2 · mm^−2 | N Stratum moleculare of dentate gyrus AchE positive nerve fiber density ([3]; 10 mg/kg/d): 142.7 ± 11.9 10^2 · mm^−2 | N Stratum oriens AchE positive nerve fiber density ([3]; 10 mg/kg/d): 171.1 ± 16.9^Δ 10^2 · mm^−2 | N Stratum radiatum AchE positive nerve fiber density ([3]; 10 mg/kg/d): 143.2 ± 20.5^ΔΔ 10^2 · mm^−2 | medicine in native form not absorbed and excreted through feces ([4]; animal pharmacokinetic experiments, oral preparations): about 80% | oral absorption percentage ([4]; oral): about 10.28%
